Measurements published in patent US10045985B2, “Heteroaryl compounds as BTK inhibitors and uses thereof” (Merck Patent GmbH, priority 2015, dated 2018).

What was measured:
[1] = molecular target: T1, full-length human BTK (Homo sapiens, UniProt Q06187); assay: Assay A: microfluidic off-chip mobility shift assay for potency against BTK enzyme; format: biochemical; details: 90 min at 27° C.
T1 construct: full-length human BTK (08-080) from CarnaBio USA, Inc; purchased CarnaBio USA, Inc., Natick, Mass; 08-080
Excerpt: Assay A: Microfluidic Off-Chip Mobility Shift Assay Protocol for Potency Assessment Against BTK Enzyme
The protocol below describes microfluidic, off-chip mobility shift kinase assay to measure inherent potency of compounds against BTK enzyme. The mechanics of the assay platform are best described by the vendor (Caliper Life Sciences, a PerkinElmer Company, Hopkinton, Mass.) on their website at the following URL:
Briefly, 2.5× stocks of full-length human BTK (08-080) from CarnaBio USA, Inc., Natick, Mass., 1.6×ATP and appropriate kinKDR peptide substrate (FITC-AHA-EEPLYWSFPAKKK-NH2; developed in-house) were prepared in kinase reaction buffer consisting of 25 mM MgCl2, 0.015% Brij-35 (30%), 100 mM Hepes, pH 7.5, and 10 mM DTT.
5 uL of enzyme buffer and 7.5 uL of ATP/kinKDR peptide substrate mix were added to Matrix (#115304) 384-well, sterile, polypropylene plates (Thermo Fisher Scientific, Hudson, N.H.) with 125 nL of serially diluted compounds prepared in 100% DMSO, and incubated for 90 min. at 27° C. following the incubation period, reactions were stopped by adding 60 uL stop buffer consisting of 100 mM Hepes, pH 7.5, 0.015% Brij-35 (30%), 0.277% Coating Reagent #3 (Caliper Life Sciences, Mountain View, Calif.), 5% DMSO. Stopped reactions were monitored at −2 PSI, −3000 V/−700 V in a LabChip 3000 plate reader from Caliper Life Sciences, a PerkinElmer Company (Hopkinton, Mass.), and the activity was measured by off-chip mobility shift assay measuring the charge/mass difference between substrate and product resulting from peptide phosphorilation. IC50 and efficacy were determined by plotting log [Inhibitor] vs. % Activity in GeneData Screener (Basel, Switzerland).

[2] = molecular target: T2, BTK C481S enzyme (His-TEV-hsBTK(328-659)(C481S)) (Homo sapiens, UniProt Q06187, C481S); assay: Assay B: microfluidic off-chip mobility shift assay for potency against BTK C481S enzyme; format: biochemical; details: 90 min at 25° C.
T2 construct: His-TEV-hsBTK(328-659)(C481S); His (N); TEV cleavage site (N)
Excerpt: Assay B: Microfluidic Off-Chip Mobility Shift Assay Protocol for Potency Assessment Against BTK C481S Enzyme
The protocol below describes a microfluidic, off-chip mobility shift kinase assay to measure inherent potency of compounds against BTK C481S enzyme. The mechanics of the assay platform are described by the vendor (PerkinElmer, Hopkinton, Mass.) on their website at the following URL: http://caliperls.com.
Briefly, 2.5× stocks of His-TEV-hsBTK(328-659)(C481S) from the Merck Serono Protein Purification Laboratory in Darmstadt, Germany (PCS, Q27/234), 1.6×ATP and appropriate KinKDR peptide substrate (FITC-AHA-EEPLYWSFPAKKK-NH2; Tufts University Core Facility custom synthesis) were prepared in kinase reaction buffer consisting of 25 mM MgCl2, 0.015% Brij-35 (30%), 100 mM HEPES, pH 7.5, and 10 mM DTT.
5 uL of enzyme buffer and 7.5 uL of ATP/KinKDR peptide substrate mix were added to Matrix (#4315) 384-well, sterile, flat-bottom polypropylene plates (Thermo Fisher Scientific, Hudson, N.H.) with 125 nL of serially diluted compounds prepared in 100% DMSO, and incubated for 90 min. at 25° C. Following the incubation period, reactions were terminated by adding 65 uL quench buffer consisting of 100 mM HEPES, pH 7.5, 0.015% Brij-35 (30%), 0.277% Coating Reagent #3 (PerkinElmer, Mountain View, Calif.), 5% DMSO. Terminated reactions were monitored at −2 PSI, −3000 V/−700 Volts in a LabChip 3000 plate reader from Caliper Life Sciences, a PerkinElmer Company (Hopkinton, Mass.), and the activity was quantified by laser-induced fluorescence measuring the charge/mass difference between substrate and product resulting from peptide phosphorylation. IC50 and efficacy were determined by plotting log [Inhibitor] vs. % Activity in GeneData Screener (Basel, Switzerland).

[3] = test system: anti-IgM-induced expression of CD69 in human peripheral blood mononuclear cells (PBMCs); assay: Assay C: time dependent PMBC IC50 assay (anti-IgM-induced CD69 expression on CD19 positive cells); format: cell-based; details: PBMC, 1 h pre-treatment, anti-IgM overnight, CD69 on CD19 positive B cells
Excerpt: Assay C: Time Dependent PMBC IC50 Assay
Btk is critical for mediating the signalling of B cell antigen receptor (BCR) after anti-IgM stimulation. Based on this principle, a functional cell-based assay was established to determine the potency of compounds at inhibiting anti-IgM-induced expression of CD69, a downstream BCR signaling event, in freshly isolated human peripheral blood mononuclear cells (PBMCs). In the assay, a 90 al PBMC suspension containing 2.5×10^5 cells was pre-treated with 10 al of test compound at various concentrations for an hour, and then incubated overnight (approximately 16-18 hours) with 5 μl 420 μg/ml affiniPure F(ab′)2 fragment goat anti-human IgM Fc fragment per well (Dianova, Cat. No.: 109-006-129). After the incubation, the cells were washed and immunostained with an APC-labeled mouse anti-human CD69 (BD Biosciences; clone: FN50), a PerCP-Cy5.5 labelled mouse anti-human CD19 (BD Biosciences; clone: SJ25C1) and a FITC-labelled mouse anti-human CD3 (BD Biosciences; clone: HIT3a), and fixed for flow cytometric analysis of CD69 expression on CD19 positive cells (B cells). The percentage of CD69 expressing CD19 positive cells was plotted against the concentrations of test compounds to obtain a concentration response curve, and calculate an IC50 value as a measure of the potency of test compounds in the assay.

T1 sequence (Q06187 whole entry): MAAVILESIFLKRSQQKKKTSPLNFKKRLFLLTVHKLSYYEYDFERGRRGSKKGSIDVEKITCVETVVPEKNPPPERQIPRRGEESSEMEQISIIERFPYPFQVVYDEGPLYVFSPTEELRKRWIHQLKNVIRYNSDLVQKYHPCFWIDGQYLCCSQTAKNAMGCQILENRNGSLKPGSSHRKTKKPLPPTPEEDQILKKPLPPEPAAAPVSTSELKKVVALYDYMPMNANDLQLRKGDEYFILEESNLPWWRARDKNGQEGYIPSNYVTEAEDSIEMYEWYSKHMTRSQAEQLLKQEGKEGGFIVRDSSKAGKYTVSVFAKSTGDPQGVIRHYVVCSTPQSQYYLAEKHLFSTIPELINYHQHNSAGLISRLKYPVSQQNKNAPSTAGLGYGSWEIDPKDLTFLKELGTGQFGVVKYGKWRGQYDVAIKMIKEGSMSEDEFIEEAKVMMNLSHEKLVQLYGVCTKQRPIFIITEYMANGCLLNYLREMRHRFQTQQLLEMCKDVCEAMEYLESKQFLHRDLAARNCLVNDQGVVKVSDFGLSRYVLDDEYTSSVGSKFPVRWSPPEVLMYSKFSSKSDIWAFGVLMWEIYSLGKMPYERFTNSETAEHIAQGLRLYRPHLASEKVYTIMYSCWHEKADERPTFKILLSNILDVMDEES
T2 sequence (Q06187 328-659 C481S): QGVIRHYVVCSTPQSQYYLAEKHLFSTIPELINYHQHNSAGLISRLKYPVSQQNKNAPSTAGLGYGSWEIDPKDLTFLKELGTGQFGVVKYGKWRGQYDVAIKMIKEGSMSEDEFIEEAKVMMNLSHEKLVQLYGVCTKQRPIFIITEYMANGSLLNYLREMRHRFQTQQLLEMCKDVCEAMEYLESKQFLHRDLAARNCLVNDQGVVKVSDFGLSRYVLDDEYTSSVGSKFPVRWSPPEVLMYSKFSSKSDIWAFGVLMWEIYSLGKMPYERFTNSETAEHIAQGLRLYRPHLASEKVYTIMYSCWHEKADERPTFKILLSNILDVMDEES

Row | IC50 [1] | IC50 [2] | Compound | IC50 [3]
1 | < 100 nM | < 100 nM | COCCOc1ccc(Nc2ncc(F)c(NC3CCCC(NC(=O)c4ccc(C(C)(C)C)cc4)C3O)n2)cc1 (racemic) [Compound 16, 4-(tert-butyl)-N-(3-((5-fluoro-2-((4-(2-methoxyethoxy)phenyl)amino)pyrimidin-4-yl)amino)-2-hydroxycyclohexyl)benzamide] | 1000 to 5000 nM
2 | 100 to 1000 nM | 100 to 1000 nM | COCCOc1ccc(Nc2ncc(F)c(NC3CCCC(NC(=O)c4ccc(C5CC5)cc4)C3)n2)cc1 (centres unmarked) [Compound 10, 4-cyclopropyl-N-(3-((5-fluoro-2-((4-(2-methoxyethoxy)phenyl)amino)pyrimidin-4-yl)amino)cyclohexyl)benzamide] | > 5000 nM
3 | < 100 nM | < 100 nM | COCCOc1ccc(Nc2ncc(F)c(N[C@@H]3CCC[C@@H](NC(=O)c4ccc(C(C)(C)C)cc4)C3O)n2)cc1 (some centres unmarked) [Compound 24] | –
